From publication PMC7966678, “GMP-compliant fully automated radiosynthesis of [^18F]FEPPA for PET/MRI imaging of regional brain TSPO expression” (EJNMMI Research, 2021)

Experiments:
TSPO [1] = biological target: T1, TSPO (Mus musculus, UniProt P50637); assay: In vivo dynamic PET/MR whole-body biodistribution of [^18F]FEPPA in control and LPS-injected mice; set-up: species or system C57BL/6 mice
T1 construct: from tissue; host or cells: living C57BL6 mice: brain regions, heart, lung, liver, spleen, kidney, blood (in vivo PET/MR)
Method: (§1) The mice in the LPS group (6 mice for each dose) were intraperitoneally injected with a single dose of 0.625, 1.25, 2.5 or 5 mg/kg LPS (Escherichia coli, strain O111:B4; Calbiochem, San Diego, CA, USA) to induce systemic inflammation. The control group were intraperitoneally injected with 0.9% NaCl. In vivo or in vitro assessments were performed 24 h after administration of LPS.
Before PET/MR imaging acquisition, the mice were anesthetized by passive inhalation of a mixture of isoflurane and oxygen (5% isoflurane for induction and 2% for maintenance). A fiber-optic temperature probe was inserted into the rectum to monitor the core temperature of the mice, then each animal was gently positioned in the MR cradle and the MRI coil was secured around the head. A warm water blanket was positioned to maintain the core temperature of the animals, then the mice were positioned inside the scanner. The depth of anesthesia, pulse and respiration were monitored constantly during the imaging procedure; in the unlikely event that an animal regained consciousness, the scanning was immediately stopped and the animal was removed from the scanner, humanely euthanized and eliminated from the study.
(§2) The animals (n = 6 per dose of LPS; n = 6 controls) were injected with [^18F]FEPPA (10.09 ± 1.38 MBq; […]) via the tail vein. Dynamic PET images were obtained using a 7 T PETMR Inline (Bruker, Rheinstetten, Germany) for 30 min with the energy window set to 350–650 keV. Images were acquired every 1 s for 10 images, 10 s for five images, 60 s for nine images, 300 s for two images and 600 s for 1 image; a total of 27 frames were collected.
(§3) The PET images were reconstructed through three-dimensional ordered-subset expectation maximization (3D-OSEM). The regional radioactivity concentration (KBq/cc) of [^18F]FEPPA was estimated based on the mean pixel values within the volumes of interest (VOI) corresponding to MR images of various regions of the brain. Image data were decay-corrected to the injection time. The radioactivity concentration (KBq/cc) of the VOI was converted to the standard uptake value (SUV), and the mean and standard error of the mean (SEM) radiotracer accumulation values were calculated for various tissues. PET/MR data were analyzed using PMOD 4.0 software (PMOD Technologies Ltd., Zurich, Switzerland).

TSPO [2] = biological target: T1, TSPO; assay: In vivo PET/MR brain region-specific uptake and pharmacokinetics (SUV, VT by Logan graphical analysis, AUC); set-up: species or system C57BL/6 mice; settings: for Brain [^18F]FEPPA uptake vs LPS dose: 24 h after injection
Method: as §1, §2
T1 and T2 MRI were performed to determine the anatomical structure of the brain. The MRI sequences included 0.5-mm thickness coronal T2 Turbo RARE high-resolution images (TR = 3455 ms, TE = 36 ms, matrix = 256 × 256, average = 8, slice number = 30).
as §3
The Logan graphical method for reversible uptake was used to assess whether [^18F]FEPPA PET/MRI [30] could be used to detect differences in the expression of TSPO. Cardiac blood was used as the reference tissue. The slope of the linear portion of the Logan plot represents the total distribution (VT). If metabolite-corrected plasma TACs are not available, a reference region TAC, Cp(t), can be used instead of the plasma TAC. Then, the slope of the linear portion of the plot can be calculated using (Eq. 1)1 ∫0tCTissueτdr/CTissuet=K∫0tCpτdr/CTissuet+V

[3] = Stability of final product (radiochemical purity by analytical HPLC); format: physicochemical; settings: 6 h after the end of synthesis; manual and automated synthesis
Method: Radiochemical and chemical purity, stability and molar activity were assessed by analytical HPLC. The molar activity of the radiotracer was quantified by measuring the radioactivity injected and deriving the concentration of FEPPA in the sample by UV detection.
The identity of the labeled compound [^18F]FEPPA was confirmed by co-injection with a non-radioactive FEPPA standard. The concentration of FEPPA in the radioactive sample was obtained from the UV-peak area ratio for the radioactive product and the standard solution. Analytical HPLC was performed on a Nova-pak C18 column (300 × 3.9 mm, 4 μm) in 50 mM (NH4)H2PO4:CH3CN (1:1) at 1 mL/min using a Waters Corporation 2695 pump with a multi-wavelength 2489 UV Detector (Waters Corporation) in series with a Bioscan FC-4000 dual BGO coincidence detector (Bioscan, Inc., Washington, DC, USA). A delay time of 12 s was observed between the two detectors.

TSPO [4] = tested on: TSPO; set-up: method as in PMID 18355686, PMID 24939192; settings: higher affinity than [^11C]PK-11195; cited from earlier work
[5] = set-up: method as in PMID 29875332; settings: cited from earlier work

CC(=O)N(Cc1ccccc1OCC[18F])c1cnccc1Oc1ccccc1 [[^18F]FEPPA, [^18F]-N-(2-(2-fluoroethoxy)benzyl)-N-(4-phenoxypyridin-3-yl) acetamide]
Increase of [^18F]FEPPA in heart, LPS-induced group vs control (TSPO [1]; LPS 5 mg/kg, 24 h): ~ 3 folds | Increase of [^18F]FEPPA in lung, LPS-induced group vs control (TSPO [1]; LPS 5 mg/kg, 24 h): ~ 3 folds | Accumulated radioactivity (SUV), Blood (TSPO [1]; LPS (5 mg/kg i.p., 24 h) mice): 1.29 ± 0.128 SUV | Accumulated radioactivity (SUV), Heart muscle (TSPO [1]; LPS (5 mg/kg i.p., 24 h) mice): 3.60 ± 0.722 SUV | Accumulated radioactivity (SUV), Kidney (TSPO [1]; LPS (5 mg/kg i.p., 24 h) mice): 5.86 ± 0.504 SUV | Accumulated radioactivity (SUV), Liver (TSPO [1]; LPS (5 mg/kg i.p., 24 h) mice): 1.60 ± 0.097 SUV | Accumulated radioactivity (SUV), Spleen (TSPO [1]; LPS (5 mg/kg i.p., 24 h) mice): 0.96 ± 0.443 SUV | Accumulated radioactivity (SUV), Whole brain (TSPO [1]; LPS (5 mg/kg i.p., 24 h) mice): 0.76 ± 0.014 SUV | Time of peak radioactivity in heart muscle (TSPO [1]; after injection): ≤ 3 min | Time to steady state in heart muscle and lungs (TSPO [1]; after injection of [^18F]FEPPA): 10 min | Blood clearance kinetics (TSPO [1]; control group, after i.v. injection): biexponential | Accumulated radioactivity (SUV), Heart muscle (TSPO [1]; control mice): 1.24 ± 0.06 SUV | Accumulated radioactivity (SUV), Kidney (TSPO [1]; control mice): 4.80 ± 0.57 SUV | Accumulated radioactivity (SUV), Liver (TSPO [1]; control mice): 1.48 ± 0.36 SUV | Accumulated radioactivity (SUV), Lung (TSPO [1]; control mice): 1.38 ± 0.08 SUV | Accumulated radioactivity (SUV), Spleen (TSPO [1]; control mice): 1.16 ± 0.32 SUV | Accumulated radioactivity (SUV), Whole brain (TSPO [1]; control mice): 0.48 ± 0.05 SUV | Accumulated radioactivity (SUV), Blood (TSPO [1]; control mice, 30 min post-injection i.v.): 1.29 ± 0.03 SUV | Time of peak accumulation in the lungs (TSPO [1]; post-injection): 1 to 2 min | Brain [^18F]FEPPA uptake vs LPS dose (TSPO [2]; 5 mg/kg LPS): significantly higher uptake | AUC (SUV·min, 0–30 min) ratio in brain, LPS vs control (TSPO [2]; LPS 5 mg/kg, 24 h): 1.58 ± 0.09 fold | VT (Logan graphical analysis) in brain, LPS vs control (TSPO [2]; LPS 5 mg/kg, 24 h, average of brain regions, cardiac blood as reference): 1.25 ± 0.12 fold | Average SUV ratio for all brain regions, LPS vs control (TSPO [2]; LPS 5 mg/kg, 24 h, brain): 1.61 ± 0.1 fold | Brain [^18F]FEPPA uptake vs LPS dose (TSPO [2]; LPS dose ≦ 2.5 mg/kg): no significant difference | Time of peak radioactivity in brain regions (TSPO [2]; control animals, followed by rapid washout): ≤ 3 min | Radiochemical purity (stability of final product) [3]: more than 99% | Affinity relative to [^11C]PK-11195 (TSPO [4]): 18 fold | Parent fraction of unmetabolized [^18F]FEPPA in the brain (intact form) ([5]; 30 min after injection): approximately 95% | Metabolite in plasma ([5]; 30 min imaging time-window): 60%
